From ChEMBL document CHEMBL5233262, “Anti-inflammatory activity of naturally occuring diarylheptanoids - A review” (Bioorg Med Chem, 2021)
Each block holds one compound with its values, some of them ahead of it.

Columns and labels:
[1] = system: RAW264.7; test: Antiinflammatory activity in mouse RAW264.7 cells assessed as inhibition of LPS-induced NO production preincubated for 1 hrs followed by LPS stimulation and measured after 24 hrs by Griess method; type: functional, cell-based
[2] = Antiinflammatory activity in mouse N11 cells assessed as inhibition of LPS-induced NO production preincubated for 1 hrs followed by LPS stimulation and measured after 24 hrs by Griess method; type: functional, cell-based
[3] = system: RAW264.7; test: Antiinflammatory activity in mouse RAW264.7 cells assessed as inhibition of LPS-induced TNFalpha level preincubated for 1 hrs followed by LPS stimulation and measured after 24 hrs by ELISA; type: functional, cell-based
[4] = Antiinflammatory activity in mouse N11 cells assessed as inhibition of LPS-induced TNFalpha level preincubated for 1 hrs followed by LPS stimulation and measured after 24 hrs by ELISA; type: functional, cell-based
[5] = system: RAW264.7; test: Antiinflammatory activity in mouse RAW264.7 cells assessed as inhibition of LPS-induced NO production preincubated for 0.5 hrs followed by LPS stimulation and measured after 24 hrs by Griess reagent based analysis; type: functional, cell-based
[6] = system: Mus musculus; test: Antiinflammatory activity in ICR mouse model of TPA-induced ear edema assessed as inhibition of ear inflammation at 1 mg,TOP for 30 mins followed by TPA addition and measured after 6 hrs; type: functional; details: time 390 min, 6.5 h
[7] = Antioxidant activity assessed as ABTS radical scavenging activity measured after 6 mins; type: functional
[8] = system: RAW264.7; test: Antiinflammatory activity in mouse RAW264.7 cells assessed as inhibition of LPS-induced NO production preincubated for 1 hrs followed by LPS stimulation and measured after 24 hrs by Griess reagent based spectrophotometrical method; type: functional, cell-based
[9] = system: J774.1; test: Antiinflammatory activity in mouse J774.1 cells assessed as inhibition of LPS-induced NO production incubated for 48 hrs by Griess reagent based analysis; type: functional, cell-based
[10] = system: RAW264.7; test: Antiinflammatory activity in mouse RAW264.7 cells assessed as inhibition of LPS-induced NO production for 24 hrs by Griess assay; type: functional, cell-based; details: RAW264.7, 24 h
[11] = Antioxidant activity assessed as […] radical scavenging activity at 50 uM; type: functional
[12] = system: Rattus norvegicus; test: Antiinflammatory activity in rat model of carrageenan-induced paw edema assessed as reduction in paw thickness at 10 mg/kg,ip and measured after 4 hrs; type: functional; set-up: scale not given: the % may be the effect or the level left
[13] = system: RAW264.7; test: Antiinflammatory activity in mouse RAW264.7 cells assessed as inhibition of LPS-induced NO production at 30 uM preincubated for 0.5 hrs followed by LPS stimulation and measured after 24 hrs by Griess reagent based analysis; type: functional; details: time 24.5 hrs
[14] = Inhibition of COX in bovine seminal vesicle assessed as reduction in PGE2 production using arachidonic acid as substrate; type: tissue-based, Bos taurus
[15] = Antioxidant activity assessed as DPPH radical scavenging activity incubated for 30 mins by spectrophotometric analysis; type: functional
[16] = system: RAW264.7; test: Antiinflammatory activity in mouse RAW264.7 cells assessed as inhibition of LPS-induced NO production incubated for 18 hrs by Griess method; type: functional, cell-based; details: RAW264.7, 18 h
[17] = system: Mus musculus; test: Antiinflammatory activity in TPA-induced ear edema ICR mouse model assessed as inhibition of ear inflammation at 1 ug, TOP for 30 mins followed by TPA addition and measured after 6 hrs; type: functional; details: dose 1 µg, time 390 min, 6.5 h

IC50 [1]: 47 µM | IC50 [2]: 44.2 µM | IC50 [3]: 9.9 µM | IC50 [4]: 29.6 µM
SMILES: COc1ccc(C/C=C/CCCCc2cccc(O)c2)cc1

IC50 [5]: 15.4 µM
SMILES: O=C(CCc1ccc(O)c(O)c1)C[C@H](CCc1ccc(O)c(O)c1)O[C@H]1OC[C@H](O)[C@@H](O)[C@@H]1OC(=O)c1ccccc1

IC50 [5]: 8.1 µM
SMILES: O=C(CCc1ccc(O)c(O)c1)C[C@H](CCc1ccc(O)cc1)O[C@@H]1OC[C@@H](O)[C@H](O)[C@H]1O

SMILES: Oc1ccc2cc1Oc1ccc(cc1)CCCC[C@@H](O)CC2
ID50 [6]: 0.26 mg

IC50 [7]: 12 µM | IC50 [8]: 13 µM
SMILES: COc1cc2cc(c1O)-c1cc(ccc1O)CCC(=O)CCCC2 [MYRICANANIN C]

IC50 ([9]; Mus musculus, J774.1, 48 h): 36 µM
SMILES: COc1cc(O)c([C@H](/C=C/C[C@@H](O)CCc2ccc(O)cc2)c2ccc(O)cc2)c(O)c1C(=O)[C@@H]1[C@H](/C=C/c2ccc(O)cc2)C[C@H](CCc2ccc(O)cc2)O[C@H]1c1ccc(O)cc1

IC50 [5]: 22 µM
SMILES: O=C(CCc1ccc(O)c(O)c1)C[C@H](CCc1ccc(O)c(O)c1)O[C@H]1OC[C@H](O)[C@@H](O)[C@@H]1OC(=O)/C=C/c1ccc(O)cc1

IC50 [2]: 15 µM | IC50 [4]: 20 µM
SMILES: O=c1cc(-c2ccc(O)cc2)oc2cc(O)cc(O)c12 [APIGENIN]

IC50 [10]: 46.7 µM
SMILES: COc1cc(C(O)C(O)C(O)CC(O)C(O)Cc2ccc(O)cc2)ccc1O (stereo not given)

IC50 [7]: 19.6 µM | IC50 [8]: 1 µM
SMILES: COc1c2cc(c(O)c1OC)CCCCC(=O)CCc1ccc(O)c-2c1 [MYRICANONE]
Activity [11]: 41% | Activity [12]: 49.6%

SMILES: OC[C@H]1O[C@@H](O[C@H](CCCCc2ccc(O)cc2)CCc2ccc(O)c(O)c2)[C@H](O)[C@@H](O)[C@@H]1O
inhibition at 30 µM [13]: 37%

IC50 ([9]; j774.1): 95 µM
SMILES: COc1cc(O)c([C@H](/C=C/C[C@@H](O)CCc2ccc(O)cc2)c2ccc(O)cc2)c2oc(-c3ccc(O)cc3)cc(=O)c12 (stereo in doubt; 111)

IC50 [5]: 63 µM
SMILES: Oc1ccc(CCCC[C@H](CCc2ccc(O)cc2)O[C@@H]2OC[C@@H](O)[C@H](O)[C@H]2O)cc1

IC50 [5]: 30 µM
SMILES: CCC(C)C(=O)O[C@@H]1[C@@H](O[C@@H](CCc2ccc(O)c(O)c2)CC(=O)CCc2ccc(O)c(O)c2)OC[C@H](O)[C@H]1O (stereo not given in full)

IC50 [1]: 25.1 µM | IC50 [2]: 41.3 µM | IC50 [3]: 15.9 µM | IC50 [4]: 23.3 µM
SMILES: COc1ccc(C/C=C/CCCCc2ccc(O)c(O)c2)cc1

IC50 [14]: 11.8 µM
SMILES: O=C1CCN(c2ccccc2)N1 [PHENIDONE]

IC50 ([9]; j774.1): 83 µM
SMILES: COc1cc(O)c([C@@H](/C=C/C[C@@H](O)CCc2ccc(O)cc2)c2ccc(O)cc2)c2oc(-c3ccc(O)cc3)cc(=O)c12 (stereo in doubt; 113)

SMILES: Oc1ccc2cc1Oc1ccc(cc1)CC[C@H](O)CCCC2 [ACEROGENIN A]
ID50 [6]: 0.32 mg

IC50 [15]: > 250 µM | IC50 [7]: 73.7 µM | IC50 [8]: 46.9 µM
SMILES: COc1c2cc(c(OC)c1OC)-c1cc(ccc1O)CC(O)C(=O)CCCC2 (stereo not given)

IC50 [16]: 13.2 µM
SMILES: O=C(CCCCc1ccc(O)cc1)CCc1ccc(O)c(O)c1

IC50 [7]: 22.3 µM | IC50 [8]: 7.5 µM
SMILES: COc1c2cc(c(O)c1OC)CCCC[C@@H](O)CCc1ccc(O)c-2c1

SMILES: CO[C@@H](CCc1ccccc1)CC(=O)CCc1ccccc1
ID50 [17]: 2.7 µmol

IC50 [10]: 27.9 µM
SMILES: Oc1ccc(CC[C@@H]2C[C@@H](O)C[C@H](c3ccc(O)c(O)c3)O2)cc1

IC50 [10]: 79.9 µM
SMILES: OC[C@H]1O[C@@H](O[C@@H]2C[C@@H](CCc3ccc(O)cc3)O[C@@H](c3ccc(O)c(O)c3)C2)[C@H](O)[C@@H](O)[C@@H]1O

SMILES: COc1cc(O)c([C@H](/C=C/C[C@H](CCc2ccc(O)cc2)OO)c2ccc(O)cc2)c(O)c1C(=O)/C=C/c1ccc(O)cc1
IC50 ([9]; Mus musculus, J774.1, 48 h): 49 µM

IC50 [5]: 22.1 µM
SMILES: Oc1ccc(CC[C@H](O)CCCCc2ccc(O)c(O)c2)cc1
